# In paper PMC2096529 (Purinergic Signalling, 2005):
# Tests used:
# Assay in all cases: Fluo-3 calcium mobilization, FLIPR, […]1 cells
# Type in all cases: cell-based
# human P2Y2 receptor = human P2Y2 receptor (Homo sapiens, UniProt P41231)
# human P2Y6 receptor = human P2Y6 receptor (Homo sapiens, UniProt Q15077)
# human P2Y4 receptor = human P2Y4 receptor (Homo sapiens, UniProt P51582)
# Chain of human P2Y4 receptor (P51582 whole entry): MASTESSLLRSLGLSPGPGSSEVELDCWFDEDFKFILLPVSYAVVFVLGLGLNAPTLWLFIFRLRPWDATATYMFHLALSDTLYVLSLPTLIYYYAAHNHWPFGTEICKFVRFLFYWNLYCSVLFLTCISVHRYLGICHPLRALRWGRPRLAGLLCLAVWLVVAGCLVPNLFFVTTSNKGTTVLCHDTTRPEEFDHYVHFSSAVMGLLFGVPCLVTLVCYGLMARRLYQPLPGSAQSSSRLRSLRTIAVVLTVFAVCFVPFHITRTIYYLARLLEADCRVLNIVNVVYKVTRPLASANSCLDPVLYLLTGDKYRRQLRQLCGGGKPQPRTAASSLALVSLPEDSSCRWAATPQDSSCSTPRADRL
# Chain of human P2Y2 receptor (P41231 whole entry): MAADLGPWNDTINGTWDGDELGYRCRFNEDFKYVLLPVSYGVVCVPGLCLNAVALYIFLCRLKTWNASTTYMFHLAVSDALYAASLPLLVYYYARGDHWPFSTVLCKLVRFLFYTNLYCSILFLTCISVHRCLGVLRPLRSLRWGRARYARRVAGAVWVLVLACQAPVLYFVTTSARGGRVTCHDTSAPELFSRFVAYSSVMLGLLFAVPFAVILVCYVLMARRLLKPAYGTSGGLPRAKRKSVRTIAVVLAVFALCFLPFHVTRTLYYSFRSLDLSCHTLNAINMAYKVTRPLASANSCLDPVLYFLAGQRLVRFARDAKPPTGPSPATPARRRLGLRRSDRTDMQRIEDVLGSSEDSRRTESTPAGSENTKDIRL
# Chain of human P2Y6 receptor (Q15077 whole entry): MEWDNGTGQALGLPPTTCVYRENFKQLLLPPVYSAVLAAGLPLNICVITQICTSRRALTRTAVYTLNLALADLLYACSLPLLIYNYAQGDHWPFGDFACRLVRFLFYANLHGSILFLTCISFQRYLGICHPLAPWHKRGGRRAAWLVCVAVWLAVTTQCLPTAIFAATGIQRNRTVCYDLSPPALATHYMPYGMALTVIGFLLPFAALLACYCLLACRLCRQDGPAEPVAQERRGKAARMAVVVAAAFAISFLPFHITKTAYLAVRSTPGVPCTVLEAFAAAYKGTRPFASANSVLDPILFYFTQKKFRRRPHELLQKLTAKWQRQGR
EC50 (human P2Y2 receptor) [nM],EC50 (human P2Y6 receptor) [nM],EC50 (human P2Y4 receptor) [nM],Structure (SMILES)
15,,,Nc1ncnc2c1ncn2[C@@H]1O[C@H](COP(=O)(O)OP(=O)(O)OP(=O)(O)O)[C@@H](O)[C@H]1O [ATP]
,33000,,"O=c1ccn([C@@H]2O[C@H](COP(=O)(O)OP(=O)(O)OC[C@H]3O[C@@H](n4ccc(=O)[nH]c4=O)[C@H](O)[C@@H]3O)[C@@H](O)[C@H]2O)c(=O)[nH]1 [compound 4, UP2U]"
15,1470,70,"O=c1ccn([C@@H]2O[C@H](COP(=O)(O)OP(=O)(O)OP(=O)(O)O)[C@@H](O)[C@H]2O)c(=O)[nH]1 [compound 7, UTP]"
2100,7540,4640,"Nc1nc2c(ncn2[C@@H]2O[C@H](COP(=O)(O)OP(=O)(O)OC[C@H]3O[C@@H](n4ccc(=O)[nH]c4=O)[C@H](O)[C@@H]3O)[C@@H](O)[C@H]2O)c(=O)[nH]1 [compound 18, UP2G]"
4800,> 10000,5060,"O=c1[nH]cnc2c1ncn2[C@@H]1O[C@H](COP(=O)(O)OP(=O)(O)OC[C@H]2O[C@@H](n3cnc4c(=O)[nH]cnc43)[C@H](O)[C@@H]2O)[C@@H](O)[C@H]1O [compound 22, IP2I]"
2000,520,16700,"Nc1ccn([C@@H]2O[C@H](COP(=O)(O)OP(=O)(O)OP(=O)(O)OC[C@H]3O[C@@H](n4ccc(=O)[nH]c4=O)[C@H](O)[C@@H]3O)[C@@H](O)[C@H]2O)c(=O)n1 [compound 31, UP3C]"
,380,,"Nc1nc2c(ncn2[C@@H]2O[C@H](COP(=O)(O)OP(=O)(O)OP(=O)(O)OC[C@H]3O[C@@H](n4ccc(=O)[nH]c4=O)[C@H](O)[C@@H]3O)[C@@H](O)[C@H]2O)c(=O)[nH]1 [compound 32, UP3G]"
4500,1310,,"O=c1ccn([C@@H]2O[C@H](COP(=O)(O)OP(=O)(O)OP(=O)(O)OC[C@H]3O[C@@H](n4cnc5c(=O)[nH]cnc54)[C@H](O)[C@@H]3O)[C@@H](O)[C@H]2O)c(=O)[nH]1 [compound 33, UP3I]"
470,280,1980,"Nc1nc2c(ncn2[C@H]2C[C@H](O)[C@@H](COP(=O)(O)OP(=O)(O)OP(=O)(O)OC[C@H]3O[C@@H](n4ccc(=O)[nH]c4=O)[C@H](O)[C@@H]3O)O2)c(=O)[nH]1 [compound 34, UP3dG]"
> 10000,> 10000,6410,"Nc1nc2c(ncn2[C@@H]2O[C@H](COP(=O)(O)OP(=O)(O)OP(=O)(O)OC[C@H]3O[C@@H](n4cnc5c(=O)[nH]cnc54)[C@H](O)[C@@H]3O)[C@@H](O)[C@H]2O)c(=O)[nH]1 [compound 37, IP3G]"
,24800,200,"O=c1ccn([C@@H]2O[C@H](COP(=O)(O)OP(=O)(O)OP(=O)(O)OP(=O)(O)OC[C@H]3O[C@@H](n4ccc(=O)[nH]c4=O)[C@H](O)[C@@H]3O)[C@@H](O)[C@H]2O)c(=O)[nH]1 [compound 43, UP4U]"
460,12100,850,"Nc1ccn([C@@H]2O[C@H](COP(=O)(O)OP(=O)(O)OP(=O)(O)OP(=O)(O)OC[C@H]3O[C@@H](n4ccc(=O)[nH]c4=O)[C@H](O)[C@@H]3O)[C@@H](O)[C@H]2O)c(=O)n1 [compound 44, UP4C]"
520,> 10000,280,"O=c1ccn([C@@H]2O[C@H](COP(=O)(O)OP(=O)(O)OP(=O)(O)OP(=O)(O)OC[C@H]3O[C@@H](n4cnc5c(=O)[nH]cnc54)[C@H](O)[C@@H]3O)[C@@H](O)[C@H]2O)c(=O)[nH]1 [compound 45, UP4I]"
180,,350,"Cc1cn([C@H]2C[C@H](O)[C@@H](COP(=O)(O)OP(=O)(O)OP(=O)(O)OP(=O)(O)OC[C@H]3O[C@@H](n4ccc(=O)[nH]c4=O)[C@H](O)[C@@H]3O)O2)c(=O)[nH]c1=O [compound 46, UP4T]"
,16000,1220,"Nc1ccn([C@H]2C[C@H](O)[C@@H](COP(=O)(O)OP(=O)(O)OP(=O)(O)OP(=O)(O)OC[C@H]3O[C@@H](n4ccc(=O)[nH]c4=O)[C@H](O)[C@@H]3O)O2)c(=O)n1 [compound 51, UP4dC]"
